Test results: EPA's ToxValDB 9.5
Several values for one entry are separate records, joined by “and”; a condition that tells them apart may be missing. Identical values can stand only once.

Assays:
Oryctolagus sp. = conditions: acute
Rattus norvegicus [1] = conditions: for LC50 / LD50: acute
Rattus norvegicus [2] = conditions: subchronic, oral, gavage
Mus musculus = conditions: oral
Rattus norvegicus [3] = conditions: oral
Rattus norvegicus [4] = conditions: subchronic; oral; gavage; M; Sprague-Dawley; Food Consumption: increase + Urinalysis: Ketone body decrease + Blood Chemistry: T-Cho increase, PL increase, TP increase + Absolute Organ …
[5] = short-term, duration: 28 days, M, Sprague-Dawley, Endocrine: Hyperplasia/hypertrophy of follicular epithelium of the thyroid
[6] = short-term, duration: 28 days, M, Sprague-Dawley, Neurological: Delayed pupillary reflex
[7] = reproduction developmental, oral, diet, Sprague-Dawley, generation: F1

For `CN(C)CCN(C)C` [N,N,N',N'-Tetramethylethylenediamine], the LD50 (Oryctolagus sp.; dermal, New Zealand) was 1230 mg/kg, the LC50 (Rattus norvegicus [1]; inhalation) was > 5610 mg/m3 and the LC50 (Rattus norvegicus [1]; inhalation, Sprague-Dawley) was > 5610 mg/m3. For the same compound, the LC50 (Rattus norvegicus [1]; inhalation, Wistar) was 6260 mg/m3.

`CCCCCCCCCCCCCCCCCCN(C)CCCCCCCCCCCCCCCCCC` [Distearylmethylamine] was tested, and the LD50 (Oryctolagus sp.; dermal, occlusive, New Zealand) was > 2000 mg/kg, the LD50 (Rattus norvegicus [1]; oral, gavage, Sprague-Dawley) was > 5000 mg/kg and the LD50 (Rattus norvegicus [1]; oral, gavage, Wistar) was > 2000 mg/kg. The “LOAEL (% diet)” value (Rattus norvegicus [1]; subchronic, duration: 13 weeks, oral, diet, Sprague-Dawley) was 0.15.

Compound `C=CC(C)C#N` (stereo unspecified) [2-Methyl-3-butenenitrile] has an LD50 (Oryctolagus sp.; dermal, occlusive, New Zealand) of 482 mg/kg and an LC50 (Rattus norvegicus [1]; inhalation, Sprague-Dawley) of 9950 mg/m3.

For `O=C(OCC1CC=CCC1)C1CC=CCC1` (stereo unspecified), the LD50 (Oryctolagus sp.; dermal, occlusive, New Zealand) was 5010 mg/kg and ≥ 12300 mg/kg and ≤ 13400 mg/kg, the LD50 (Rattus norvegicus [1]; oral, gavage) was 2840 mg/kg and the LD50 (Rattus norvegicus [1]; oral, gavage, Sprague-Dawley) was ≥ 1360 mg/kg and ≤ 2390 mg/kg.

With `CC(C)CCCCCCc1cccc2c(CCCCCCC(C)C)cccc12` [Diisononylnaphthalene] the LD50 (Oryctolagus sp.; dermal, New Zealand) was > 20000 mg/kg, the LC50 (Rattus norvegicus [1]; Inhalation, Wistar) was > 17 µg/mL and the LD50 (Rattus norvegicus [1]; oral, gavage, Wistar) was > 5000 mg/kg.

`O=c1[nH]c(=O)[nH]c(=O)[nH]1` [Cyanuric acid] was tested, and the LD50 (Oryctolagus sp.; dermal, occlusive, New Zealand) was > 5000 mg/kg and the LD50 (Rattus norvegicus [1]; oral, gavage, Sprague-Dawley) was > 5000 mg/kg.

For `CC1COC(=O)O1` (stereo unspecified) [Propylene carbonate], the LD50 (Oryctolagus sp.; dermal, occlusive, New Zealand) was > 3000 mg/kg, the LD50 (Rattus norvegicus [1]; oral, Sprague-Dawley) was > 5000 mg/kg and the NOAEL (Rattus norvegicus [1]; developmental, duration: 6 days, oral, gavage, Sprague-Dawley) was 5000 mg/kg-day. For the same compound, the NOAEL (Rattus norvegicus [1]; reproduction developmental, duration: 13 weeks, oral, gavage, Sprague-Dawley, generation: F0) was 5000 mg/kg-day, the NOAEL (Rattus norvegicus [1]; reproduction developmental, duration: 13 weeks, oral, gavage, Sprague-Dawley, generation: F1) was 5000 mg/kg-day and the NOAEL (Rattus norvegicus [1]; reproduction developmental, duration: 13 weeks, oral, gavage, Sprague-Dawley, generation: F2) was 5000 mg/kg-day. It also gave an NOAEL (Rattus norvegicus [1]; reproduction developmental, duration: 93 days, inhalation, generation: F0) of 1000 mg/m3, an NOAEL (Rattus norvegicus [1]; reproduction developmental, duration: 93 days, inhalation, generation: F1) of 1000 mg/m3 and an NOAEL (Rattus norvegicus [1]; reproduction developmental, duration: 93 days, inhalation, generation: F2) of 1000 mg/m3. For the same compound, the NOAEL (Rattus norvegicus [1]; subchronic, duration: 90 days, oral, gavage, Sprague-Dawley) was 5000 mg/kg-day.

Work on `O=C(O)C(F)(F)C(F)(F)C(F)(F)F` [Perfluorobutanoic acid] yielded an NOAEL (Rattus norvegicus [2]; duration: 90 days, M, Sprague-Dawley, Increased hepatocellular hypertrophy (Liver), Decreased total T4 (Thyroid)) of 6 mg/kg-day, an LOAEL (Mus musculus; developmental, duration: 18 days, gavage, CD1, Developmental: Eye opening delayed approximately 1 day) of 35 mg/kg-day and an NOAEL (Mus musculus; reproduction developmental, duration: 18 days, gavage, CD1, Hepatic: Significant increase in absolute and relative liver weight at ?[…]) of 350 mg/kg-day. It also gave an NOAEL (Mus musculus; short-term, duration: 10 days, diet, M, Hepatic: 63% increase in absolute liver weight) of 78 mg/kg-day, an NOAEL (Rattus norvegicus [3]; short-term, duration: 5 days, gavage, M/F, Sprague-Dawley, Immunotoxicological: No histological alterations + Neurological: No histological alterations + Reproductive: No histological alterations) of 184 mg/kg-day and an NOAEL (Rattus norvegicus [3]; short-term, duration: 14 days, diet, M, Sprague-Dawley, Hepatic: Biochemical and ultrastructural evidence of peroxisome proliferation) of 20 mg/kg-day. For the same compound, the NOAEL (Rattus norvegicus [3]; short-term, duration: 28 days, M/F, Sprague-Dawley, Hepatic: Increased absolute and relative liver weight and decreased serum cholesterol in males at ?30 mg/kg/day / hepatocellular …) was 150 mg/kg-day, the LOAEL (Rattus norvegicus [3]; [5]) was 30 mg/kg-day and the NOAEL (Rattus norvegicus [3]; [5]) was 6 mg/kg-day. It also gave an LOAEL (Rattus norvegicus [3]; [6]) of 150 mg/kg-day, an NOAEL (Rattus norvegicus [3]; [6]) of 30 mg/kg-day and an NOAEL (Rattus norvegicus [3]; subchronic, duration: 90 days, M/F, Sprague-Dawley, Hematological: Reduced erythrocyte counts (3.8%), hemoglobin (5.7%), and hematocrit (4.5%)) of 6 mg/kg-day. The NOAEL (Rattus norvegicus [3]; subchronic, duration: 90 days, M/F, Sprague-Dawley, Hepatic: Diffuse panlobular hepatocyte hypertrophy at 30 mg/kg/day in males + Immunotoxicological: No histological alterations + …) was 30 mg/kg-day, the NOAEL (Rattus norvegicus [3]; subchronic, duration: 90 days, M, Sprague-Dawley, Endocrine: Hypertrophy/hyperplasia of follicular epithelium of the thyroid gland) was 6 mg/kg-day and the LOAEL (Rattus norvegicus [3]; subchronic, duration: 90 days, M, Sprague-Dawley, Endocrine: Hypertrophy/hyperplasia of follicular epithelium of the thyroid gland + Hematological: Reduced erythrocyte counts (3.8%), …) was 30 mg/kg-day.

`BrC(Br)Br` [Bromoform] was tested, and the LOAEL (Rattus norvegicus [2]; M/F, hepatic lesions) was 50 mg/kg-day, the NOEL (Rattus norvegicus [2]; M/F, hepatic lesions) was 25 mg/kg-day and 17.9 mg/kg-day and the NOAEL (Mus musculus; short-term, duration: 14 days, gavage, M, CD1, hepatic) was 72 mg/kg-day. It also gave an LOAEL (Rattus norvegicus [3]; chronic, duration: 103 weeks, gavage, M/F, Fischer 344, hepatic) of 100 mg/kg-day and an NOAEL (Rattus norvegicus [3]; subchronic, duration: 13 weeks, gavage, M/F, Fischer 344, hepatic) of 25 mg/kg-day.

For `CCCCN(CCCC)C(=S)SCSC(=S)N(CCCC)CCCC` [4,4'-Methylene bis(dibutyldithiocarbamate)], the LD50 (Oryctolagus sp.; dermal) was > 2000 mg/kg, the LD50 (Rattus norvegicus [1]; oral) was 16000 mg/kg and the NOAEL (Rattus norvegicus [1]; reproduction developmental, oral, diet, Sprague-Dawley, generation: F0) was 1000 ppm. For the same compound, the LOAEL (Rattus norvegicus [1]; [7]) was > 20000 ppm and the NOAEL (Rattus norvegicus [1]; [7]) was > 20000 ppm.

`C=C(C#N)C(=O)OCC` [Ethyl cyanoacrylate] was tested, and the LD50 (Oryctolagus sp.; dermal, occlusive, New Zealand) was > 2000 mg/kg, the LC50 (Rattus norvegicus [1]; inhalation, Wistar) was < 21.1 µg/mL and the LD50 (Rattus norvegicus [1]; oral, gavage) was > 5000 mg/kg.

In the case of `c1ccc(OP(Oc2ccccc2)Oc2ccccc2)cc1` [Triphenyl phosphite], the LD50 (Oryctolagus sp.; dermal, New Zealand) is reported as ≥ 2000 mg/kg and ≤ 5000 mg/kg, the LC50 (Rattus norvegicus [1]; Inhalation, Sherman Wistar) is reported as > 6.7 µg/mL and the LD50 (Rattus norvegicus [1]; oral, gavage, Sherman Wistar) is reported as 1590 mg/kg. It also gave an NOAEL (Rattus norvegicus [1]; reproduction developmental, duration: 16 weeks, oral, gavage, Sprague-Dawley, generation: F0) of 15 mg/kg-day and an NOAEL (Rattus norvegicus [1]; reproduction developmental, duration: 16 weeks, oral, gavage, Sprague-Dawley, generation: F1) of 15 mg/kg-day.

For `Clc1ccccn1` [2-Chloropyridine], the LD50 (Oryctolagus sp.; dermal) was < 200 mg/kg and the LD50 (Rattus norvegicus [1]; oral, gavage) was 342 mg/kg.

With `CC(C)OC(C)C` [Isopropyl ether] the LD50 (Oryctolagus sp.; dermal, non-occlusive, New Zealand) was > 2000 mg/kg, the LD50 (Oryctolagus sp.; oral, New Zealand) was 4500 mg/kg and the NOAEL (Rattus norvegicus [1]; reproduction developmental, duration: 13 weeks, inhalation, Sprague-Dawley) was 2010 mg/m3. The NOAEL (Rattus norvegicus [1]; reproduction developmental, duration: 10 days, inhalation, F, Sprague-Dawley) was 1800 mg/m3 and the NOEL (Rattus norvegicus [4]) was < 100 mg/kg-day.

`CCCCCCCCCCCCCCCCCCOP1OCC2(CO1)COP(OCCCCCCCCCCCCCCCCCC)OC2` (stereo unspecified) [Distearyl pentaerythritol diphosphite] was tested, and the LD50 (Oryctolagus sp.; dermal, New Zealand) was > 2000 mg/kg, the LD50 (Rattus norvegicus [1]; oral, gavage, Sherman Wistar) was > 10000 mg/kg and the NOAEL (Rattus norvegicus [1]; subchronic, duration: 90 days, oral, diet, Sprague-Dawley) was > 288 mg/kg-day.
